# Patent publication US8420592B2, “Methods of treatment using single doses of oritavancin” (The Medicines Company, priority 2008, dated 2013)
# Tested on: cSSSI due to gram-positive pathogens
# Test: Phase 2 randomized double-blind study of three oritavancin dose regimens in cSSSI: clinical response at test-of-cure
# Assay type: in vivo, human
# Settings: for Cure (cure and improvement), % of patients: TOC
# Method: A phase 2, multi-center, randomized, double-blind, parallel, active-comparator study in which three dose regimens of oritavancin were explored as a treatment for cSSSI due to gram-positive pathogens was conducted using: a daily dose (200 mg) administered for three to seven days, a single dose (1200 mg), and an infrequent dose (800 mg dose with option for an additional 400 mg on Day 5).
# Patients were randomized through an interactive voice response system in a 1:1:1 ratio to receive either 1) oritavancin […] daily dose: 200 mg IV daily for 3 to 7 days as determined by the investigator based on clinical criteria, 2) oritavancin single dose: 1200 mg oritavancin IV on Day 1, or; 3) oritavancin infrequent dose: 800 mg IV on Day 1 with optional 400 mg IV on Day 5 as determined by investigator based on clinical criteria. During randomization patients were stratified by disease categories of wound infection, major abscess, and cellulitis. Placebo IV (5% dextrose in water) was given to maintain the blind.
# Analyses were performed on four patient populations: intent-to-treat (ITT), modified intent-to-treat (MITT), clinically evaluable (CE) and microbiologically evaluable (ME). The ITT population included patients who were randomized to treatment and received any amount of study medication. Two patients who were potentially unblinded were excluded from the ITT population for all efficacy analyses. The MITT population included all ITT patients with a gram-positive pathogen isolated at baseline.
# The primary efficacy endpoint was the clinical response in the CE population at TOC, which occurred 20 to 28 days after study enrollment on Day 1. Clinical response was determined by the investigator as part of the end-of-therapy, TOC, and late follow-up procedures by assessing signs and symptoms including fever, pain, tenderness, erythema, induration, edema, purulent drainage, eschar, and devitalized tissue. A clinical response of cure, improvement, failure, or indeterminate was assigned at end-of-therapy and TOC by the investigator based on clinical signs and symptoms. At late follow-up, the investigator could assign the clinical response of relapse in addition to cure, improvement, or indeterminate. Only patients with a clinical response of cure or improvement at TOC were assessed for clinical response at late follow-up.
# Cure was defined as resolution of purulent drainage, pain, edema, fever, erythema, tenderness, and induration. Serous drainage or aspirate and/or granulation tissue could be present. Improvement was defined as resolution of purulent drainage and, in the case of cellulitis, cessation of fever and pain. Residual erythema, edema, pain (in the case of wound or abscess), tenderness, and/or induration could be present as could serous drainage, granulation tissue, eschar, and/or devitalized tissue. Failure included any of the following: presence of purulent drainage (or aspirate) and/or fever; the unanticipated need for abscess drainage or removal of sutures (for treatment of infection)>48 hours after initiation of study therapy; or treatment with nonstudy systemic antibiotic having activity against gram-positive pathogen(s) for the primary infection site or use of topical antibiotics at the site of primary infection 24 hours or more after initiation of study medication therapy.
# The primary efficacy endpoint was clinical response (either cure or improvement versus failure) at TOC in the CE population. The primary efficacy analyses were a comparison of the proportions of CE patients with a clinical response of cure (defined as investigator assessment of cure or improvement) in the daily dose group compared to, 1) the single dose group and 2) the infrequent dose group. Adjusted estimates for the differences in response rates and the corresponding confidence intervals (CI) were constructed using the Mantel-Haenszel method stratified by disease category.
# [1] = Clinically evaluable, cellulitis
# [2] = Clinically evaluable, major abscess
# [3] = Clinically evaluable, Mantel-Haenszel stratified by disease
# [4] = Intent to treat, Mantel-Haenszel stratified by disease
# [5] = Microbiologically evaluable, Mantel-Haenszel stratified by disease
# [6] = Modified intent-to-treat, Mantel-Haenszel stratified by disease
compound,measurement,setting,value
"CN[C@H](CC(C)C)C(=O)N[C@H]1C(=O)N[C@@H](CC(N)=O)C(=O)N[C@H]2C(=O)N[C@H]3C(=O)N[C@H](C(=O)N[C@H](C(=O)O)c4cc(O)cc(O)c4-c4cc3ccc4O)[C@H](O[C@H]3C[C@](C)(N)[C@@H](O)[C@H](C)O3)c3ccc(c(Cl)c3)Oc3cc2cc(c3O[C@@H]2O[C@H](CO)[C@@H](O)[C@H](O)[C@H]2O[C@H]2C[C@](C)(NCc3ccc(-c4ccc(Cl)cc4)cc3)[C@@H](O)[C@H](C)O2)Oc2ccc(cc2Cl)[C@H]1O [Oritavancin, N-(4-(4-chlorophenyl)benzyl)A82846B]",Estimated Difference in cure rate 800 mg − 200 mg,[1],14.4%
same,Estimated Difference in cure rate 1200 mg − 200 mg,[1],29.2%
same,"Cure (cure and improvement), % of patients","Clinically evaluable, cellulitis, 200 mg IV daily for 3 to 7 days",58.3%
same,"Cure (cure and improvement), % of patients","Clinically evaluable, cellulitis, 800 mg IV Day 1 with optional 400 mg Day 5",72.7%
same,"Cure (cure and improvement), % of patients","Clinically evaluable, cellulitis, single dose 1200 mg IV Day 1",87.5%
same,Estimated Difference in cure rate 800 mg − 200 mg,[2],−4.8%
same,Estimated Difference in cure rate 1200 mg − 200 mg,[2],−2.3%
same,"Cure (cure and improvement), % of patients","Clinically evaluable, major abscess, 200 mg IV daily for 3 to 7 days",92.3%
same,"Cure (cure and improvement), % of patients","Clinically evaluable, major abscess, 800 mg IV Day 1 with optional 400 mg Day 5",87.5%
same,"Cure (cure and improvement), % of patients","Clinically evaluable, major abscess, single dose 1200 mg IV Day 1",90.0%
same,Estimated Difference in cure rate 800 mg − 200 mg,"Clinically evaluable, wound",6.6%
same,Estimated Difference in cure rate 1200 mg − 200 mg,"Clinically evaluable, wound",1.3%
same,"Cure (cure and improvement), % of patients","Clinically evaluable, wound, 200 mg IV daily for 3 to 7 days",65.4%
same,"Cure (cure and improvement), % of patients","Clinically evaluable, wound, 800 mg IV Day 1 with optional 400 mg Day 5",72.0%
same,"Cure (cure and improvement), % of patients","Clinically evaluable, wound, single dose 1200 mg IV Day 1",66.7%
same,Estimated Difference in cure rate 800 mg − 200 mg,[3],5.2%
same,Estimated Difference in cure rate 1200 mg − 200 mg,[3],8.6%
same,"Cure (cure and improvement), % of patients","Clinically evaluable, 200 mg IV daily for 3 to 7 days",72.4%
same,"Cure (cure and improvement), % of patients","Clinically evaluable, 800 mg IV Day 1 with optional 400 mg Day 5",77.5%
same,"Cure (cure and improvement), % of patients","Clinically evaluable, single dose 1200 mg IV Day 1",81.5%
same,Cure rate,"Clinically evaluable, infrequent dose group, 800 mg Day 1 plus optional 400 mg Day 5",77.1%
same,Cure rate,"Clinically evaluable, infrequent dose group, only 800 mg on Day 1",78.3%
same,Estimated Difference in cure rate 800 mg − 200 mg,[4],5.1%
same,Estimated Difference in cure rate 1200 mg − 200 mg,[4],8.7%
same,"Cure (cure and improvement), % of patients","Intent to treat, 200 mg IV daily for 3 to 7 days",72.4%
same,"Cure (cure and improvement), % of patients","Intent to treat, 800 mg IV Day 1 with optional 400 mg Day 5",78.2%
same,"Cure (cure and improvement), % of patients","Intent to treat, single dose 1200 mg IV Day 1",81.8%
same,Estimated Difference in cure rate 800 mg − 200 mg,[5],11.0%
same,Estimated Difference in cure rate 1200 mg − 200 mg,[5],8.5%
same,"Cure (cure and improvement), % of patients","Microbiologically evaluable, 200 mg IV daily for 3 to 7 days",69.1%
same,"Cure (cure and improvement), % of patients","Microbiologically evaluable, 800 mg IV Day 1 with optional 400 mg Day 5",81.3%
same,"Cure (cure and improvement), % of patients","Microbiologically evaluable, single dose 1200 mg IV Day 1",79.3%
same,Estimated Difference in cure rate 800 mg − 200 mg,[6],11.1%
same,Estimated Difference in cure rate 1200 mg − 200 mg,[6],10.1%
same,"Cure (cure and improvement), % of patients","Modified intent-to-treat, 200 mg IV daily for 3 to 7 days",68.8%
same,"Cure (cure and improvement), % of patients","Modified intent-to-treat, 800 mg IV Day 1 with optional 400 mg Day 5",80.6%
same,"Cure (cure and improvement), % of patients","Modified intent-to-treat, single dose 1200 mg IV Day 1",80.3%
same,Patients with cellulitis who failed having unplanned surgical procedures or interventions,daily dose group (200 mg),29%
same,Relapse in CE patients,"daily dose group, late follow-up",no patients
same,Patients with cellulitis who failed having unplanned surgical procedures or interventions,infrequent dose group (800 mg),7%
same,Relapse rate in CE patients,"infrequent dose group, late follow-up",3.7%
same,Patients with cellulitis who failed having unplanned surgical procedures or interventions,"single dose group (1200 mg), n/total",0/9
same,Relapse rate in CE patients,"single dose group, late follow-up",1.6%
